The values below come from patent US20260327204A1, “DEGRADERS OF CYCLIN-DEPENDENT KINASE 12/13, COMPOSITIONS, AND USES THEREOF” (ZHEJIANG UNIVERSITY, priority 2023, published 2026).

The target in one test is CDK13 (Homo sapiens, UniProt Q14004). In words: Western blot degradation of CDK13 (Example 3). Format: cell-based. On the set-up: degradation of CDK12/13 protein in leukemia cells KASUMI-1, MV4-11, and Jurkat; endogenous in cells. As to conditions: DC50 classes; cell line not given; read-out: CDK13 degradation Activity.
Another test has as its target CDK12 (Homo sapiens, UniProt Q9NYV4). The test is described as follows: Western blot degradation of CDK12 (Example 3). The arrangement: degradation of CDK12/13 protein in leukemia cells KASUMI-1, MV4-11, and Jurkat; endogenous in cells. Type of test: cell-based. As to conditions: DC50 classes; cell line not given; read-out: CDK12 degradation Activity.

Bounds are passed on as bounds.

Sequence of CDK12 (Q9NYV4 whole entry): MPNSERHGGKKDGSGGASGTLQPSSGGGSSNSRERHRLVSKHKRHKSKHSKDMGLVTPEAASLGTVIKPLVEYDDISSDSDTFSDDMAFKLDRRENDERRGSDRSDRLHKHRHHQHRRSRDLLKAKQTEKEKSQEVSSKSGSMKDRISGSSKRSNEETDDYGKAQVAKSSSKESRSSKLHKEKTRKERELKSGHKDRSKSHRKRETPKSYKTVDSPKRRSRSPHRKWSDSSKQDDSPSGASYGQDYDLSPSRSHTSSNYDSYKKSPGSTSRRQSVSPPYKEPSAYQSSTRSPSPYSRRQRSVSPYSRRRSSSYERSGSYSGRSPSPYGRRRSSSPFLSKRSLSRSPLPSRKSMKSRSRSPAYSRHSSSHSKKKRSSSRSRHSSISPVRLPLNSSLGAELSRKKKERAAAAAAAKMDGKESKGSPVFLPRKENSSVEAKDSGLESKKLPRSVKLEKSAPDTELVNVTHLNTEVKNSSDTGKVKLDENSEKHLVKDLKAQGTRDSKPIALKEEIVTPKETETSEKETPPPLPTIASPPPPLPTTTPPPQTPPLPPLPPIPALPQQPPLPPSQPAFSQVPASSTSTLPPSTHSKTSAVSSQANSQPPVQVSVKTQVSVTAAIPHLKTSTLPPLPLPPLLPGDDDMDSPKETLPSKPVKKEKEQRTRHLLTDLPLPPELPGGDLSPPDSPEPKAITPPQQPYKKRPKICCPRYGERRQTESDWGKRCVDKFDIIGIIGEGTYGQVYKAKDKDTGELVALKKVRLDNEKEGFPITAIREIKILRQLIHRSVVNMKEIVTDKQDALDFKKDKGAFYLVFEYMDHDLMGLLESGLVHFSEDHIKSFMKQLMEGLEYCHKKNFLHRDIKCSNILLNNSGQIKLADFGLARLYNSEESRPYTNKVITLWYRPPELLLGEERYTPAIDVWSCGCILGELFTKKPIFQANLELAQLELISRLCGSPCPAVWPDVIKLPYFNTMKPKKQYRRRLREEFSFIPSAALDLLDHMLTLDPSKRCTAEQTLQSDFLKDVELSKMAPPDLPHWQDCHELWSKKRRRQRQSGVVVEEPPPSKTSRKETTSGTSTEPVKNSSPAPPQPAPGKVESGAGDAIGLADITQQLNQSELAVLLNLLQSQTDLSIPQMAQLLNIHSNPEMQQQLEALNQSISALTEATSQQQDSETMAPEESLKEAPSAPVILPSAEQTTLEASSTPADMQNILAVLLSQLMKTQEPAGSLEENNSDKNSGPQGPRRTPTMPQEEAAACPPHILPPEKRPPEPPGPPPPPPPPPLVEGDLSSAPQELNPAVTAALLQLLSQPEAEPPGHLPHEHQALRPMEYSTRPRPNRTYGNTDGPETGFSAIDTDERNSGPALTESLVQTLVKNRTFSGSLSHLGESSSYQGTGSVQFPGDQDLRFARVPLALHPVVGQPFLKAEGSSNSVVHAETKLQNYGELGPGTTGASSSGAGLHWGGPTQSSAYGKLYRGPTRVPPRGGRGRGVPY
Sequence of CDK12 (O75909 whole entry partner): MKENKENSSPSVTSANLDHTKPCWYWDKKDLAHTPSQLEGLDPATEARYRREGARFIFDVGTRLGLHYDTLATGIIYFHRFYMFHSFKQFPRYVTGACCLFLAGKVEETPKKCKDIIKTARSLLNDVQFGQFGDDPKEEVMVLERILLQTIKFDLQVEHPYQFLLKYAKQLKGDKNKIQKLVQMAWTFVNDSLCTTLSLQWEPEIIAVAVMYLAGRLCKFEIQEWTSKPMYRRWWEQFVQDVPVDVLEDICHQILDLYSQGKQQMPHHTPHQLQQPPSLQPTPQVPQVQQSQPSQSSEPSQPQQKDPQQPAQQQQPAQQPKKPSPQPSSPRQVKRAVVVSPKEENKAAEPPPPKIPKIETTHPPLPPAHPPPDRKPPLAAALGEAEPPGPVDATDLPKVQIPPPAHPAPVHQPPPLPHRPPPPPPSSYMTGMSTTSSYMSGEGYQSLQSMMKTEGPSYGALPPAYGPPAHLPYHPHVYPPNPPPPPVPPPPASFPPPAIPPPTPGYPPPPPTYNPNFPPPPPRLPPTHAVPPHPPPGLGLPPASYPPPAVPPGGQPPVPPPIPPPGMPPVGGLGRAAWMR
Sequence of CDK13 (Q14004 whole entry): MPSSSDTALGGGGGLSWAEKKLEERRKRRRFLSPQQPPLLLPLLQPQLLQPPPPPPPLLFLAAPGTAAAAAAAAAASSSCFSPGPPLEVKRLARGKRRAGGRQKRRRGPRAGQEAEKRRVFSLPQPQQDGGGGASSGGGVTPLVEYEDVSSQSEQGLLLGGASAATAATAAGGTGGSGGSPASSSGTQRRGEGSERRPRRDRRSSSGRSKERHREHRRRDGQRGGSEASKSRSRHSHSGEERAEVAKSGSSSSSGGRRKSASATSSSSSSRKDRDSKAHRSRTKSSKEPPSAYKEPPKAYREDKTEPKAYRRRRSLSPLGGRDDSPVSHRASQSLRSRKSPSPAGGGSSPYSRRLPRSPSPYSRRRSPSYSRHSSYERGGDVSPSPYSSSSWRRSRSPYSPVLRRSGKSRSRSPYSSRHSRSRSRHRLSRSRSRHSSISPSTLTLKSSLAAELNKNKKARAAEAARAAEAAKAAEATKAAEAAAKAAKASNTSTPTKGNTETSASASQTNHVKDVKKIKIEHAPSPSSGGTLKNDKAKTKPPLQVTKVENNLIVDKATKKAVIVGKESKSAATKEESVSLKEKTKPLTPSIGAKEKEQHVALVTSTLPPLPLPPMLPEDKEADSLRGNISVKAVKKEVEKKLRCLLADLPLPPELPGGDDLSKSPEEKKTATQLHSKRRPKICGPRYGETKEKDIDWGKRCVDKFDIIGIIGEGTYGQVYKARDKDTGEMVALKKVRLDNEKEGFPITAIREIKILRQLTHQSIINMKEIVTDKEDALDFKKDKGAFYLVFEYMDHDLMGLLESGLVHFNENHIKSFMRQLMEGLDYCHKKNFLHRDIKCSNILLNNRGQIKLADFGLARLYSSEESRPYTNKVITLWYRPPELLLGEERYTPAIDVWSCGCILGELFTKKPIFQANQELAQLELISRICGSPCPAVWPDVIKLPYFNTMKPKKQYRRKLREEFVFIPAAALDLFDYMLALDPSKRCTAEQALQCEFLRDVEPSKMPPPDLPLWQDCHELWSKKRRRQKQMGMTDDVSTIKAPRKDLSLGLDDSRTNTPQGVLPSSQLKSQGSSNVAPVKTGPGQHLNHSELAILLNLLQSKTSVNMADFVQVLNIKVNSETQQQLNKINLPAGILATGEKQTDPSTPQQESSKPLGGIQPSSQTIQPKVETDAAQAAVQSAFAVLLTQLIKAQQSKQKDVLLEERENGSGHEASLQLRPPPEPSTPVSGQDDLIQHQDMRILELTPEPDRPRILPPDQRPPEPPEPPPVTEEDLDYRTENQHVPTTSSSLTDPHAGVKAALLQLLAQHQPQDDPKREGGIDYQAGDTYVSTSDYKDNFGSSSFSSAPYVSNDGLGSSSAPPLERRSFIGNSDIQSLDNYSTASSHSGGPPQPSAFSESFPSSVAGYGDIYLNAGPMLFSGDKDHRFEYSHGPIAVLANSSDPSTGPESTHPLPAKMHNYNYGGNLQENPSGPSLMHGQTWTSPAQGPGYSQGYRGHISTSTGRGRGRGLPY
Sequence of CDK13 (O75909 whole entry partner): as the sequence (O75909 whole entry partner) above

Take `CC(=O)N(c1ccc(-c2cnc(O[C@H]3CCN(c4ccc5c(c4)C(=O)N(C4CCC(=O)NC4=O)C5=O)C3)nc2)cc1)[C@H]1CC[C@H](Nc2ncc3ccccc3n2)CC1` (stereo partly drawn) [Formula 110, N-(4-(2-(((3S)-1-(2-(2,6-dioxopiperidin-3-yl)-1,3-dioxoisoindolin-5-yl)pyrrolidin-3-yl)oxy)pyrimidin-5-yl)phenyl)-N-((1R,4R)-4-(quinazolin-2-ylamino)cyclohexyl)acetamide]: the DC50 was 0.5 to 1 µM on CDK13 and 1 to 3 µM on CDK12.

Turning to `CC(=O)N(c1ccc(-c2cnc(OC3CN(c4ccc5c(c4)C(=O)N(C4CCC(=O)NC4=O)C5=O)C3)nc2)cc1)[C@H]1CC[C@H](Nc2ncc3ccccc3n2)CC1` (stereo partly drawn) [Formula 108, N-(4-(2-((1-(2-(2,6-dioxopiperidin-3-yl)-1,3-dioxoisoindolin-5-yl)azetidin-3-yl)oxy)pyrimidin-5-yl)phenyl)-N-((1R,4R)-4-(quinazolin-2-ylamino)cyclohexyl)acetamide], the DC50 at CDK13 and at CDK12 was 0.1 to 0.5 µM in each case.

For `CC(=O)N(c1ccc(-c2cnc(N3CCN(C(=O)N[C@H](C(=O)N4C[C@H](O)C[C@H]4C(=O)N[C@@H](C)c4ccc(-c5scnc5C)cc4)C(C)(C)C)CC3)nc2)cc1)[C@H]1CC[C@H](Nc2ncc3ccccc3n2)CC1` [Formula 146, N—((S)-1-((2S,4R)-4-hydroxy-2-(((S)-1-(4-(4-methylthiazol-5-yl)phenyl)ethyl)carbamoyl)pyrrolidin-1-yl)-3,3-dimethyl-1-oxobutan-2-yl)-4-(5-(4-(N-((1R,4R)-4-(quinazolin-2-ylamino)cyclohexyl)acetamido)phenyl)pyrimidin-2-yl)piperazine-1-carboxamide], the DC50 on CDK13 and at CDK12 was 3 to 10 µM throughout.

For the compound `CC(=O)N(c1ccc(-c2ccc(N3C[C@H]4C[C@@H]3CN4CC(=O)N[C@H](C(=O)N3C[C@H](O)C[C@H]3C(=O)N[C@@H](C)c3ccc(-c4scnc4C)cc3)C(C)(C)C)nc2)cc1)[C@H]1CC[C@H](Nc2ncc3ccccc3n2)CC1` [Formula 143, (2S,4R)-1-((S)-3,3-dimethyl-2-(2-((1R,4R)-5-(5-(4-(N-((1R,4S)-4-(quinazolin-2-ylamino)cyclohexyl)acetamido)phenyl)pyridin-2-yl)-2,5-diazabicyclo[2.2.1]heptan-2-yl)acetamido)butanoyl)-4-hydroxy-N—((S)-1-(4-(4-methylthiazol-5-yl)phenyl)ethyl)pyrrolidine-2-carboxamide], the DC50 at CDK13 and at CDK12 was 0.1 to 0.5 µM each time.

`CC(=O)N(c1ccc(-c2cnc(N3CCN(Cc4cnn([C@H](C(=O)N5C[C@H](O)C[C@H]5C(=O)N[C@@H](C)c5ccc(-c6scnc6C)cc5)C(C)C)c4)CC3)nc2)cc1)[C@H]1CC[C@H](Nc2ncc3ccccc3n2)CC1` [Formula 153, (2S,4R)-4-hydroxy-1-((S)-3-methyl-2-(4-((4-(5-(4-(N-((1R,4R)-4-(quinazolin-2-ylamino)cyclohexyl)acetamido)phenyl)pyrimidin-2-yl)piperazin-1-yl)methyl)-1H-pyrazol-1-yl)butanoyl)-N—((S)-1-(4-(4-methylthiazol-5-yl)phenyl)ethyl)pyrrolidine-2-carboxamide]: the results for the DC50 at CDK13 and on CDK12 were < 0.1 µM and 0.1 to 0.5 µM, respectively.

On to `CC(=O)N(c1ccc(-c2ccc(C(=O)N[C@H]3CCC(=O)NC3=O)nc2)cc1)[C@H]1CC[C@H](Nc2ncc3ccccc3n2)CC1` [Formula 129, N—((S)-2,6-dioxopiperidin-3-yl)-5-(4-(N-((1R,4S)-4-(quinazolin-2-ylamino)cyclohexyl)acetamido)phenyl)pyridinecarboxamide], for which the DC50 on CDK13 and on CDK12 was 3 to 10 µM each time.

With `CC(=O)N(c1ccc(-c2cnc(N3C[C@H]4C[C@@H]3CN4CC(=O)N[C@H](C(=O)N3C[C@H](O)C[C@H]3C(=O)N[C@@H](C)c3ccc(-c4scnc4C)cc3)C(C)(C)C)nc2)cc1)[C@H]1CC[C@H](Nc2ncc3ccccc3n2)CC1` [Formula 144, (2S,4R)-1-((S)-3,3-dimethyl-2-(2-((1R,4R)-5-(5-(4-(N-((1r,4S)-4-(quinazolin-2-ylamino)cyclohexyl)acetamido)phenyl)pyrimidin-2-yl)-2,5-diazabicyclo[2.2.1]heptan-2-yl)acetamido)butanoyl)-4-hydroxy-N—((S)-1-(4-(4-methylthiazol-5-yl)phenyl)ethyl)pyrrolidine-2-carboxamide], the DC50 is 0.1 to 0.5 µM at CDK13 and < 0.1 µM at CDK12.

With `CC(=O)N(c1ccc(N2CCC3(CC2)CCN(c2ccc4c(c2)C(=O)N(C2CCC(=O)NC2=O)C4=O)CC3)cc1)[C@H]1CC[C@H](Nc2ncc3ccccc3n2)CC1` (stereo partly drawn) [Formula 120, N-(4-(9-(2-(2,6-dioxopiperidin-3-yl)-1,3-dioxoisoindolin-5-yl)-3,9-diazaspiro[5.5]undecan-3-yl)phenyl)-N-((1R,4R)-4-(quinazolin-2-ylamino)cyclohexyl)acetamide], the DC50 at CDK13 and on CDK12 was 3 to 10 µM throughout.

Turning to `CC(=O)N(c1ccc(-c2cnc(OCC3CCN(CC(=O)N[C@H](C(=O)N4C[C@H](O)C[C@H]4C(=O)N[C@@H](C)c4ccc(-c5scnc5C)cc4)C(C)(C)C)CC3)nc2)cc1)[C@H]1CC[C@H](Nc2ncc3ccccc3n2)CC1` [Formula 134, (2S,4R)-1-((S)-3,3-dimethyl-2-(2-(4-(((5-(4-(N-((1R,4R)-4-(quinazolin-2-ylamino)cyclohexyl)acetamido)phenyl)pyrimidin-2-yl)oxy)methyl)piperidin-1-yl)acetamido)butanoyl)-4-hydroxy-N—((S)-1-(4-(4-methylthiazol-5-yl)phenyl)ethyl)pyrrolidine-2-carboxamide], the DC50 at CDK13 and at CDK12 was 0.5 to 1 µM throughout.

Turning to `CC(=O)N(c1ccc(N2CCN(C3CN(c4ccc5c(c4)C(=O)N(C4CCC(=O)NC4=O)C5=O)C3)CC2)cc1)[C@H]1CC[C@H](Nc2ncc3ccccc3n2)CC1` (stereo partly drawn) [Formula 124, N-(4-(4-(1-(2-(2,6-dioxopiperidin-3-yl)-1,3-dioxoisoindolin-5-yl)azetidin-3-yl)piperazin-1-yl)phenyl)-N-((1R,4R)-4-(quinazolin-2-ylamino)cyclohexyl)acetamide], the DC50 on CDK13 and at CDK12 was 1 to 3 µM each time.

In the case of `CC(=O)N(c1ccc(-c2ccc(OCCOCC(=O)N[C@H](C(=O)N3C[C@H](O)C[C@H]3C(=O)N[C@@H](C)c3ccc(-c4scnc4C)cc3)C(C)(C)C)nc2)cc1)[C@H]1CC[C@H](Nc2ncc3ccccc3n2)CC1` [Formula 131, (2S,4R)-1-((S)-3,3-dimethyl-2-(2-(2-((5-(4-(N-((1R,4R)-4-(quinazolin-2-ylamino)cyclohexyl)acetamido)phenyl)pyridin-2-yl)oxy)ethoxy)acetamido)butanoyl)-4-hydroxy-N—((S)-1-(4-(4-methylthiazol-5-yl)phenyl)ethyl)pyrrolidine-2-carboxamide], the DC50 at CDK13 and at CDK12 was 0.5 to 1 µM throughout.

For the compound `CC(=O)N(c1ccc(-c2cnn(C3CCN(c4ccc5c(c4)C(=O)N(C4CCC(=O)NC4=O)C5=O)C3)c2)cc1)[C@H]1CC[C@H](Nc2ncc3ccccc3n2)CC1` (stereo partly drawn) [Formula 116, N-(4-(1-(1-(2-(2,6-dioxopiperidin-3-yl)-1,3-dioxoisoindolin-5-yl)pyrrolidin-3-yl)-1H-pyrazol-4-yl)phenyl)-N-((1R,4R)-4-(quinazolin-2-ylamino)cyclohexyl)acetamide], the DC50 on CDK13 and at CDK12 was 3 to 10 µM each time.

As for `CC(=O)N(c1ccc(N2CCN(C3CCN(c4ccc5c(c4)C(=O)N(C4CCC(=O)NC4=O)C5=O)C3)CC2)cc1)[C@H]1CC[C@H](Nc2ncc3ccccc3n2)CC1` (stereo partly drawn) [Formula 125, N-(4-(4-(1-(2-(2,6-dioxopiperidin-3-yl)-1,3-dioxoisoindolin-5-yl)pyrrolidin-3-yl)piperazin-1-yl)phenyl)-N-((1R,4R)-4-(quinazolin-2-ylamino)cyclohexyl)acetamide], the DC50 on CDK13 lay within 3 to 10 µM; at CDK12 it was 1 to 3 µM.

On to `CC(=O)N(c1ccc(N2CCN(C(=O)/C=C/c3ccc4c(c3)C(=O)N(C3CCC(=O)NC3=O)C4=O)CC2)cc1)[C@H]1CC[C@H](Nc2ncc3ccccc3n2)CC1` (stereo partly drawn) [Formula 118, N-(4-(4-((E)-3-(2-(2,6-dioxopiperidin-3-yl)-1,3-dioxoisoindolin-5-yl)acryloyl)piperazin-1-yl)phenyl)-N-((1R,4R)-4-(quinazolin-2-ylamino)cyclohexyl)acetamide], for which the DC50 lay in the range of 0.5 to 1 µM on CDK13 and 1 to 3 µM on CDK12.

For `CC(=O)N(c1ccc(-c2ccc(N3C[C@@H]4C[C@H]3CN4CC(=O)N[C@H](C(=O)N3C[C@H](O)C[C@H]3C(=O)N[C@@H](C)c3ccc(-c4scnc4C)cc3)C(C)(C)C)nc2)cc1)[C@H]1CC[C@H](Nc2ncc3ccccc3n2)CC1` [Formula 141, (2S,4R)-1-((S)-3,3-dimethyl-2-(2-((1S,4S)-5-(5-(4-(N-((1R,4S)-4-(quinazolin-2-ylamino)cyclohexyl)acetamido)phenyl)pyridin-2-yl)-2,5-diazabicyclo[2.2.1]heptan-2-yl)acetamido)butanoyl)-4-hydroxy-N—((S)-1-(4-(4-methylthiazol-5-yl)phenyl)ethyl)pyrrolidine-2-carboxamide], the DC50 was 0.1 to 0.5 µM at CDK13 and < 0.1 µM at CDK12.
